Literature values as cited in patent US20060030591A1 (Wyeth, priority 2004, published 2006).

Tests used:
[1] = tested on: tamoxifen-resistent MCF-7 breast cancer xenografts; settings: recent preclinical studies, qualitative
[2] = tested on: tamoxifen-sensitive cells lines; settings: other studies, qualitative
uterus = settings: qualitative

Compound: Cc1c(-c2ccc(O)cc2)n(Cc2ccc(OCCN3CCCCC3)cc2)c2ccc(O)cc12.Cl [pipindoxifene, 2-(4-hydroxyphenyl)-3-methyl-1-[4-(2-piperidin-1-yl-ethoxy)-benzyl]-1H-indol-5-ol hydrochloride]
- growth of tamoxifen-resistent MCF-7 breast cancer xenografts [1]: inhibited the growth
- effectiveness in tamoxifen-sensitive cells lines [2]: show effectiveness
- effect in the uterus (uterus; Greenberger, et al., Clin. Cancer Res. (2001)): antiestrogenic in the uterus
- uterotropic activity (uterus; tissue selective estrogenic effects): little or no uterotropic activity
